# Results published in patent publication US9730912B2, “Pharmaceutical compounds” (ASTEX THERAPEUTICS LIMITED, priority 2006, dated 2017).
# Tests used:
# [1] = molecular target: T1, human Hsp90α N-terminal domain (Homo sapiens, UniProt P07900); assay: Isothermal titration calorimetry (ITC) binding to human Hsp90; details: 25 mM Tris, 100 mM NaCl, 1 mM MgCl2, 1 mM TCEP, 5% DMSO, pH 7.4
# T1 construct: Cloning, expression, and purification of the Human Hsp90a N-terminal domain were performed according to published methods; made in house
# Method: The ability of the compounds of the invention to bind to human Hsp90 proteins was determined using isothermal titration calorimetry.
# Isothermal titration calorimetry (ITC) experiments were performed with a VP-ITC titration calorimeter (Microcal Inc., Northampton, Mass., USA). […] All solutions were filtered and degassed prior to a titration being carried out. The enthalpy change resulting from each injection of ligand was obtained through integration of the calorimetric signal. Data were analysed using Origin 7.0 (Microcal Software Inc., Northampton, Mass.). Heats of dilution were estimated using the final injections of each individual titration and subtracted before data fitting. Different ITC experimental formats were employed in order to obtain compound dissociation constants (Kd's) over a wide range of affinities. […] In this type of experiment the stoichiometry parameter (N) was locked at 1 for data fitting.
# [2] = Solid-state stability of crystalline L-lactate salt forms (storage in air / 40° C. and 75% RH, XRPD); assay type: physicochemical; details: solid L-lactate 1:1 salt of Compound (VIII); in air, or at 40° C. and 75% RH
# Source text: Samples for X-ray powder diffraction (XRPD) data collection were gently ground by marble mortar and loaded into a crystallographic capillary (from Hampton Research, Quartz or Glass Type 10, 0.4 or 0.7 mm diameter). Diffraction patterns were collected at room temperature using CuKα radiation (λ=1.5418 Å) from a Rigaku rotating anode RU3HR, Osmic blue confocal optics, ¼ c goniometer and a Rigaku HTC image plate detector. 2D images were collected while spinning φ axis with a detector to crystal distance of 250 mm. Data collection was controlled by CrystalClear software and 2D images were converted to 1D plot (2θ vs. Intensity) by Datasqueeze (intensity averaged over the azimuthal angle 0≦χ≦360° for 2θ range 3-30° in 0.02° steps). In house program AstexXRPD was used for manipulation and visualisation of 1D XRPD patterns.
Kd [1] [nM],stability of crystalline form [2],SMILES
< 100,–,"CC(C)c1cc(C(=O)N2Cc3ccc(CN4CCN(C)CC4)cc3C2)c(O)cc1O [Example 55, (2,4-dihydroxy-5-isopropyl-phenyl)-[5-(4-methyl-piperazin-1-ylmethyl)-1,3-dihydro-isoindol-2-yl]-methanone]"
–,transforms in air into form FL1,"CC(C)c1cc(C(=O)N2Cc3ccc(CN4CCN(C)CC4)cc3C2)c(O)cc1O.C[C@H](O)C(=O)O [Form FL3, (2,4-dihydroxy-5-isopropyl-phenyl)-[5-(4-methyl-piperazin-1-ylmethyl)-1,3-dihydro-isoindol-2-yl]-methanone L-lactate salt]"
–,stable in air,"CC(C)c1cc(C(=O)N2Cc3ccc(CN4CCN(C)CC4)cc3C2)c(O)cc1O.C[C@H](O)C(=O)O [form FL2, (2,4-dihydroxy-5-isopropyl-phenyl)-[5-(4-methyl-piperazin-1-ylmethyl)-1,3-dihydro-isoindol-2-yl]-methanone L-lactate salt]"

SMILES,Kd [1] [nM],stability of crystalline form [2]
"CC(C)c1cc(C(=O)N2Cc3ccc(CN4CCN(C)CC4)cc3C2)c(O)cc1O.C[C@H](O)C(=O)O [Form FL1, (2,4-dihydroxy-5-isopropyl-phenyl)-[5-(4-methyl-piperazin-1-ylmethyl)-1,3-dihydro-isoindol-2-yl]-methanone L-lactate salt]",–,stable in air and at 40 °C and 75% RH for at least one month
